Read-outs that look alike come from different tables or passages of the source.
Key:
M1 muscarinic receptor = biological target: T1, M1 muscarinic receptor (Homo sapiens, UniProt P11229); assay: Functional mobilization of intracellular calcium (FLIPR, Fluo-3), M1-CHO cells; assay type: cell-based; details: for Emax: 100% efficacy is the maximum response obtained with the Carbachol control, read-out: M1 Efficacy
T1 construct: expressed in transfected cells; host or cells: CHO cells (M1-CHO, under zeocin and G418 selection)
T1 sequence (P11229 1-460): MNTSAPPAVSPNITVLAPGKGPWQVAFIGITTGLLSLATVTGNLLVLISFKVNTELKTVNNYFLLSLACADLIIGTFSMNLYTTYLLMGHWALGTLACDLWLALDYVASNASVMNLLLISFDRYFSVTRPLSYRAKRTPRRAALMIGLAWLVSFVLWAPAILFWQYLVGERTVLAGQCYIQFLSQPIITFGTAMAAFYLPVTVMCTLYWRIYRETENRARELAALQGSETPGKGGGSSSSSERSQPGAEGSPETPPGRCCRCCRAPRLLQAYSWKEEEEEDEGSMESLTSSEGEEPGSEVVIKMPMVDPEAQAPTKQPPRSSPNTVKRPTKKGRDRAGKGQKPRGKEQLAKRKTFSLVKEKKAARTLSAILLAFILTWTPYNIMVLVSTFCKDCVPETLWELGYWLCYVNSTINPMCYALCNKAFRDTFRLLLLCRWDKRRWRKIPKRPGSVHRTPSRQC
In short: (§1)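 CHO lines stably carrying the muscarinic subtype, dye-loaded with Fluo-3 at 37° C for 60-90 min, receive test compound in 0.5% DMSO. Agonist effects are read directly; antagonist effects against carbachol at EC80 after 15 min pre-incubation.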

M4 muscarinic receptor = biological target: T2, M4 muscarinic receptor (Homo sapiens, UniProt P08173); assay: Functional mobilization of intracellular calcium (FLIPR, Fluo-3), M4-CHO cells; assay type: cell-based; details: for Emax: 100% efficacy is the maximum response obtained with the Carbachol control, read-out: M4 Efficacy
T2 construct: expressed in transfected cells; host or cells: CHO cells (M4-CHO, under puromycin, zeocin and blasticidin selection)
T2 sequence (P08173 1-479): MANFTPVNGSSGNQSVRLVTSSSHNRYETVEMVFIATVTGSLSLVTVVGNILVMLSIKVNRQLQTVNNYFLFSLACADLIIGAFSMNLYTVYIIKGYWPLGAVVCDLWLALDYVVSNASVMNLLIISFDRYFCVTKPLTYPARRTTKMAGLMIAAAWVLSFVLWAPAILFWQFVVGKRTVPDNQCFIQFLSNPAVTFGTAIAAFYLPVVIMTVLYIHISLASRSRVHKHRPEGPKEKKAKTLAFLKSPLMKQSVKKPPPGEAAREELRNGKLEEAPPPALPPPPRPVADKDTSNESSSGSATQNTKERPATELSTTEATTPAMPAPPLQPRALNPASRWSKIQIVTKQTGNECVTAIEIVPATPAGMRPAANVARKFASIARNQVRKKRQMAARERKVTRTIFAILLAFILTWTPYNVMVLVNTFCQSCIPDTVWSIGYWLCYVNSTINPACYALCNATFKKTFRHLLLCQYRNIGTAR
In short: as §1

[1] = compound nos. 1-454, M1-CHO cells, calcium mobilization
[2] = compound nos. 1-454, M4-CHO cells, calcium mobilization

Structure (SMILES)	Emax (M1 muscarinic receptor; compound nos. 1-454) [%]	M1 Activity (M1 muscarinic receptor; [1])	Emax (M4 muscarinic receptor; compound nos. 1-454) [%]	M4 Activity (M4 muscarinic receptor; [2])	Emax (M1 muscarinic receptor; compound nos. 455-509) [%]	M1 Activity (M1 muscarinic receptor; compounds 455-509)	Emax (M4 muscarinic receptor; compound nos. 455-509) [%]	M4 Activity (M4 muscarinic receptor; compounds 455-509)
CCOC(=O)N1CCC(N2CCC3(CC2)CNc2ccccc23)CC1 [compound 352]	> 85	+++ (activity was measured to be less than or equal to 0.7 μM)	> 70	+ (activity was measured to be greater than or equal to 4.0 μM)	–	–	–	–
CCOC(=O)N1CCC(N2CCC3(CC2)CN(CC(C)=O)c2ccc(F)cc23)CC1 [compound 249]	65 to 85	+ (activity was measured to be greater than or equal to 3.0 μM)	55 to 70	+ (activity was measured to be greater than or equal to 4.0 μM)	–	–	–	–
COCCOC(=O)N1C2CCC1CC(N1CCC3(CC1)C(=O)Nc1ccccc13)C2 (stereo not shown) [compound 71]	< 65	+++ (activity was measured to be less than or equal to 0.7 μM)	< 55	++ (activity was measured to be between 0.1 μM and 4.0 μM)	–	–	–	–
Clc1ccc2c(c1)C1(CCO2)CCN(C2CCOCC2)CC1 [compound 178]	> 85	++ (activity was measured to be between 0.7 μM and 3.0 μM)	55 to 70	+ (activity was measured to be greater than or equal to 4.0 μM)	–	–	–	–
COC(=O)N1CC2(CCN(C3CC4CCC(C3)N4C(=O)O[C@@H]3CCOC3)CC2)c2cc(F)ccc21 (stereo partly shown) [compound 192]	65 to 85	+++ (activity was measured to be less than or equal to 0.7 μM)	55 to 70	+ (activity was measured to be greater than or equal to 4.0 μM)	–	–	–	–
CN(C)C(=O)N1CC2(CCN(C3CCN(c4nncs4)CC3)CC2)c2ccccc21 [compound 495]	–	–	–	–	25 to 100	+ (activity was measured to be greater than or equal to 5.0 μM)	25 to 100	+ (activity was measured to be greater than or equal to 5.0 μM)
CC(=O)NC1CC2(CCN(C3CC4CCC(C4)C3)CC2)c2ccccc21 (stereo not shown) [compound 8]	< 65	++ (activity was measured to be between 0.7 μM and 3.0 μM)	55 to 70	++ (activity was measured to be between 0.1 μM and 4.0 μM)	–	–	–	–
CCOC(=O)N1CCC(N2CCC3(CC2)CN(C(=O)c2ccccn2)c2ccc(F)cc23)CC1 [compound 331]	< 65	++ (activity was measured to be between 0.7 μM and 3.0 μM)	< 55	+ (activity was measured to be greater than or equal to 4.0 μM)	–	–	–	–
CCCC1CCC(N2CCC3(CC2)CNc2ccc(F)cc23)CC1 (stereo not shown) [compound 328]	< 65	++ (activity was measured to be between 0.7 μM and 3.0 μM)	55 to 70	+ (activity was measured to be greater than or equal to 4.0 μM)	–	–	–	–
CCOC(=O)N1CCC(N2CCC3(CC2)C(=O)N(C)c2ccccc23)CC1 [compound 31]	> 85	+++ (activity was measured to be less than or equal to 0.7 μM)	55 to 70	+++ (activity was measured to be less than or equal to 0.1 μM)	–	–	–	–
CCOC(=O)N1C2CCC1CC(N1CCC3(CC1)CN(C(=O)OC)c1ccc(F)cc13)C2 (stereo not shown) [compound 167]	65 to 85	+++ (activity was measured to be less than or equal to 0.7 μM)	> 70	++ (activity was measured to be between 0.1 μM and 4.0 μM)	–	–	–	–
CN(C)C(=O)N1CCC2(CCN(C3CC4CCC(C3)N4c3cnccn3)CC2)c2ccccc21 (stereo not shown) [compound 486]	–	–	–	–	> 100	+++ (activity was measured to be less than or equal to 2.0 μM)	25 to 100	++ (activity was measured to be between 2.0 μM and 5.0 μM)
Cc1ccc2c(c1)C1(CCN(C3CC4CCC3C4)CC1)CN2C(=O)c1cc(C)n(C)n1 (stereo not shown) [compound 211]	65 to 85	+ (activity was measured to be greater than or equal to 3.0 μM)	< 55	+ (activity was measured to be greater than or equal to 4.0 μM)	–	–	–	–

— patent US7858635B2 (priority 2005, dated 2010)
